Results from patent publication US20220204497A1, “NOVEL COMPOUND HAVING ANTICANCER ACTIVITY, AND METHOD FOR PRODUCING SAME” (MEDICINAL BIOCONVERGENCE RESEARCH CENTER, priority 2019, published 2022).

System: A549 cells
Assay: Cell viability by MTT method in A549 cells
Assay type: cell-based
Set-up: concentration or dose not given beside the values
Conditions: 72 hours treatment

| SMILES | Cell Viability (% inhibition) (A549) |
| --- | --- |
| Cc1ccc(S(=O)(=O)N[C@@H](CC(C)C)C(=O)N2CCOCC2)cc1 [Compound 1, (S)-4-methyl-N-(4-methyl-1-morpholino-1-oxopentan-2-yl)benzenesulfonamide] | 17.79% |
| Cc1ccc(S(=O)(=O)N[C@H](CC(C)C)C(=O)N2CCOCC2)cc1 [Compound 2, (R)-4-methyl-N-(4-methyl-1-morpholino-1-oxopentan-2-yl)benzenesulfonamide] | 29.46% |
| Cc1ccc(S(=O)(=O)N[C@@H](CC(C)C)C(=O)Nc2ccc(N3CCCCC3)cc2)cc1 [Compound 7, (S)-4-methyl-2-(4-methylphenylsulfonamido)-N-(4-(piperidin-1-yl)phenyl)pentanamide] | 23.48% |
| Cc1ccc(S(=O)(=O)N[C@@H](CC(C)C)C(=O)Nc2ccc(N3CCC(C)CC3)cc2)cc1 [Compound 8, (S)-4-methyl-2-(4-methylphenylsulfonamido)-N-(4-(4-methylpiperidin-1-yl)phenyl) pentanamide] | 24.89% |
| Cc1ccc(S(=O)(=O)N[C@@H](CC(C)C)C(=O)Nc2ccc(N3CCOCC3)cc2)cc1 [Compound 11, (S)-4-methyl-2-(4-methylphenylsulfonamido)-N-(4-morpholinophenyl)pentanamide] | 23.76% |
| Cc1ccc(S(=O)(=O)N[C@@H](CC(C)C)C(=O)Nc2ccc(N3CCS(=O)(=O)CC3)cc2)cc1 [Compound 15, (S)—N-(4-(1,1-dioxidothiomorpholino)phenyl)-4-methyl-2-(4-methylphenylsulfonamido)pentanamide] | 4.86 ± 8.75% |
| Cc1ccc(S(=O)(=O)N[C@@H](CC(C)C)C(=O)Nc2ccc(N3CCCC3)cc2)cc1 [Compound 17, (S)-4-methyl-2-(4-methylphenylsulfonamido)-N-(4-(pyrrolidin-1-yl)phenyl)pentanamide] | 20.11% |
| CC(C)C[C@H](NS(=O)(=O)c1ccc(F)cc1)C(=O)Nc1ccc(N2CCOCC2)cc1 [Compound 21, (S)-2-(4-fluorophenylsulfonamido)-4-methyl-N-(4-morpholinophenyl)pentanamide] | 33.04% |
| CC(C)C[C@H](NS(=O)(=O)c1ccc(Br)cc1)C(=O)Nc1ccc(N2CCOCC2)cc1 [Compound 22, (S)-2-(4-bromophenylsulfonamido)-4-methyl-N-(4-morpholinophenyl)pentanamide] | 39.56 ± 5.42% |
| CC(C)C[C@H](NS(=O)(=O)c1ccccc1)C(=O)Nc1ccc(N2CCOCC2)cc1 [Compound 27, (S)-4-methyl-N-(4-morpholinophenyl)-2-(phenylsulfonamido)pentanamide] | 13.51 ± 9.40% |
| COc1ccc(S(=O)(=O)N[C@@H](CC(C)C)C(=O)Nc2ccc(N3CCOCC3)cc2)cc1 [Compound 29, (S)-2-(4-methoxyphenylsulfonamido)-4-methyl-N-(4-morpholinophenyl)pentanamide] | 12.70 ± 4.95% |
| CC(C)C[C@H](NS(=O)(=O)c1ccc([N+](=O)[O-])cc1)C(=O)Nc1ccc(N2CCOCC2)cc1 [Compound 31, (S)-4-methyl-N-(4-morpholinophenyl)-2-(4-nitrophenylsulfonamido)pentanamide] | 33.24 ± 4.95% |
| CC(C)C[C@H](NS(=O)(=O)c1ccc(-c2ccccc2)cc1)C(=O)Nc1ccc(N2CCOCC2)cc1 [Compound 33, (S)-2-(biphenyl-4-ylsulfonamido)-4-methyl-N-(4-morpholinophenyl)pentanamide] | 26.48 ± 3.66% |
| Cc1ccc(S(=O)(=O)N[C@@H](C)C(=O)Nc2ccc(N3CCOCC3)cc2)cc1 [Compound 44, (S)-2-(4-methylphenylsulfonamido)-N-(4-morpholinophenyl)propanamide] | 14.05 ± 4.05% |
| CSCC[C@H](NS(=O)(=O)c1ccc(C)cc1)C(=O)Nc1ccc(N2CCOCC2)cc1 [Compound 45, (S)-2-(4-methylphenylsulfonamido)-4-(methylthio)-N-(4-morpholinophenyl)butanamide] | 12.97 ± 1.24% |
| Cc1ccc(S(=O)(=O)N[C@@H](Cc2ccccc2)C(=O)Nc2ccc(N3CCOCC3)cc2)cc1 [Compound 48, (S)-2-(4-methylphenylsulfonamido)-N-(4-morpholinophenyl)-3-phenylpropanamide] | 45.68 ± 2.92% |
| COc1ccc(-c2csc(NC(=O)[C@H](Cc3c[nH]c4ccccc34)NS(=O)(=O)c3ccc(Br)cc3)n2)cc1 [Compound 62, (S)-2-(4-Bromophenylsulfonamido)-3-(1H-indol-3-yl)-N-(4-(4-methoxyphenyl)thiazol-2-yl)propanamide] | 90.17 ± 0.96% |

| SMILES | Cell Viability (% inhibition) (A549) |
| --- | --- |
| Cc1ccccc1S(=O)(=O)N[C@@H](Cc1c[nH]c2ccccc12)C(=O)Nc1ccc(N2CCOCC2)cc1 [Compound 64, (S)-3-(1H-indol-3-yl)-2-(2-methylphenylsulfonamido)-N-(4-morpholinophenyl)propanamide] | 51.75 ± 1.56% |
| Cc1cccc(S(=O)(=O)N[C@@H](Cc2c[nH]c3ccccc23)C(=O)Nc2ccc(N3CCOCC3)cc2)c1 [Compound 65, (S)-3-(1H-indol-3-yl)-2-(3-methylphenylsulfonamido)-N-(4-morpholinophenyl)propanamide] | 74.94 ± 1.04% |
| Cc1ccc(S(=O)(=O)N[C@H](Cc2c[nH]c3ccccc23)C(=O)Nc2ccc(N3CCOCC3)cc2)cc1 [Compound 76, (R)-3-(1H-indol-3-yl)-2-(4-methylphenylsulfonamido)-N-(4-morpholinophenyl)propanamide] | 63.47 ± 0.82% |
| COC[C@H](C)Oc1ccc(-c2csc(NC(=O)[C@H](CC(C)C)NS(=O)(=O)c3ccc(C)cc3)n2)cc1 [Compound 98, (S)—N-(4-(4((S)-1-methoxypropan-2-yloxy)phenyl)thiazol-2-yl)-4-methyl-2-(4-methylphenylsulfonamido)pentanamide] | 76.55 ± 1.52% |
| Cc1ccc(S(=O)(=O)N[C@@H](CC(C)C)C(=O)Nc2nc(-c3ccc(N4CCOCC4)cc3)cs2)cc1 [Compound 99, (S)-4-Methyl-2-(4-methylphenylsulfonamido)-N-(4-(4-morpholinophenyl)thiazol-2-yl)pentanamide] | 73.11 ± 3.83% |
| COC(=O)c1ccc(-c2csc(NC(=O)[C@H](CC(C)C)NS(=O)(=O)c3ccc(C)cc3)n2)cc1 [Compound 100, (S)-Methyl 4-(2-(4-methyl-2-(4-methylphenylsulfonamido)pentanamido)thiazol-4-yl)benzoate] | 79.24 ± 1% |
| COc1ccc(-c2csc(NC(=O)[C@H](Cc3c[nH]c4ccccc34)NS(=O)(=O)c3ccc(Br)cc3)n2)c(OC)c1 [Compound 108, (S)-2-(4-Bromophenylsulfonamido)-N-(4-(2,4-dimethoxyphenyl)thiazol-2-yl)-3-(1H-indol-3-yl)propanamide] | 9.05 ± 7.51% |
| Cc1ccc(S(=O)(=O)N[C@@H](Cc2cn(C=O)c3ccccc23)C(=O)Nc2ccc(N3CCOCC3)cc2)cc1 [Compound 125, (S)-3-(1-Formyl-1H-indol-3-yl)-2-(4-methylphenylsulfonamido)-N-(4-morpholinophenyl)propanamide] | 49.76 ± 2.98% |
| COc1ccc(-c2cc(NC(=O)[C@H](Cc3c[nH]c4ccccc34)NS(=O)(=O)c3ccc(C)cc3)on2)cc1 [Compound 126, (S)-3-(1H-indol-3-yl)-N-(3-(4-methoxyphenyl)isoxazol-5-yl)-2-(4-methylphenylsulfonamido)propanamide] | 85.53 ± 0.66% |
| Cc1ccc(S(=O)(=O)N[C@@H](CO)C(=O)Nc2ccc(N3CCOCC3)cc2)cc1 [Compound 130, (S)-3-Hydroxy-2-(4-methylphenylsulfonamido)-N-(4-morpholinophenyl)propanamide] | 16.62 ± 10.08% |
| Cc1ccc(S(=O)(=O)N[C@H](C(=O)Nc2ccc(N3CCOCC3)cc2)C(C)C)cc1 [Compound 131, (S)-3-Methyl-2-(4-methylphenylsulfonamido)-N-(4-morpholinophenyl)butanamide] | 5.78 ± 7.70% |
| O=C(Nc1ccccc1)N[C@@H](Cc1c[nH]c2ccccc12)C(=O)N1CCOCC1 [Compound 132, (S)-1-(3-(1H-indol-3-yl)-1-morpholino-1-oxopropan-2-yl)-3-phenylurea] | −11.18 ± 5.31% |
| Cc1ccc(S(=O)(=O)N[C@@H](Cc2c[nH]c3ccccc23)C(=O)Nc2ccc(N3CCOCC3)nc2)cc1 [Compound 133, (S)-3-(1H-indol-3-yl)-2-(4-methylphenylsulfonamido)-N-(6-morpholinopyridin-3-yl)propanamide] | 6.18 ± 6.05% |
| N#Cc1ccc(S(=O)(=O)N[C@@H](Cc2c[nH]c3ccccc23)C(=O)Nc2ccc(N3CCOCC3)cc2)cc1 [Compound 135, (S)-2-(4-Cyanophenylsulfonamido)-3-(1H-indol-3-yl)-N-(4-morpholinophenyl)propanamide] | 55.02 ± 1.06% |
| O=C(Nc1ccc(N2CCOCC2)cc1)[C@H](Cc1c[nH]c2ccccc12)NS(=O)(=O)c1ccc(C(F)(F)F)nc1 [Compound 136, (S)-3-(1H-indol-3-yl)-N-(4-morpholinophenyl)-2-(6-(trifluoromethyl)pyridine-3-sulfonamido)propanamide] | 87.12 ± 2.3% |
| COC(=O)CC[C@@H](C(=O)Nc1ccc(N2CCOCC2)cc1)N(C)S(=O)(=O)c1ccccc1 [Compound 137, (S)-Methyl 4-(methylphenylsulfonamido)-5-(4-morpholinophenylamino)-5-oxopentanoate] | 17.75 ± 5.15% |
